The structures appear in SMILES notation. Where only a bound is given, the exact number is not on record here.

The results in this text go back to US20210317134A1, “UBIQUITIN-SPECIFIC-PROCESSING PROTEASE 7 (USP7) MODULATORS AND USES THEREOF” (RAPT THERAPEUTICS, INC., priority 2019, published 2021).

Sequence of USP7 (Q93009 whole entry): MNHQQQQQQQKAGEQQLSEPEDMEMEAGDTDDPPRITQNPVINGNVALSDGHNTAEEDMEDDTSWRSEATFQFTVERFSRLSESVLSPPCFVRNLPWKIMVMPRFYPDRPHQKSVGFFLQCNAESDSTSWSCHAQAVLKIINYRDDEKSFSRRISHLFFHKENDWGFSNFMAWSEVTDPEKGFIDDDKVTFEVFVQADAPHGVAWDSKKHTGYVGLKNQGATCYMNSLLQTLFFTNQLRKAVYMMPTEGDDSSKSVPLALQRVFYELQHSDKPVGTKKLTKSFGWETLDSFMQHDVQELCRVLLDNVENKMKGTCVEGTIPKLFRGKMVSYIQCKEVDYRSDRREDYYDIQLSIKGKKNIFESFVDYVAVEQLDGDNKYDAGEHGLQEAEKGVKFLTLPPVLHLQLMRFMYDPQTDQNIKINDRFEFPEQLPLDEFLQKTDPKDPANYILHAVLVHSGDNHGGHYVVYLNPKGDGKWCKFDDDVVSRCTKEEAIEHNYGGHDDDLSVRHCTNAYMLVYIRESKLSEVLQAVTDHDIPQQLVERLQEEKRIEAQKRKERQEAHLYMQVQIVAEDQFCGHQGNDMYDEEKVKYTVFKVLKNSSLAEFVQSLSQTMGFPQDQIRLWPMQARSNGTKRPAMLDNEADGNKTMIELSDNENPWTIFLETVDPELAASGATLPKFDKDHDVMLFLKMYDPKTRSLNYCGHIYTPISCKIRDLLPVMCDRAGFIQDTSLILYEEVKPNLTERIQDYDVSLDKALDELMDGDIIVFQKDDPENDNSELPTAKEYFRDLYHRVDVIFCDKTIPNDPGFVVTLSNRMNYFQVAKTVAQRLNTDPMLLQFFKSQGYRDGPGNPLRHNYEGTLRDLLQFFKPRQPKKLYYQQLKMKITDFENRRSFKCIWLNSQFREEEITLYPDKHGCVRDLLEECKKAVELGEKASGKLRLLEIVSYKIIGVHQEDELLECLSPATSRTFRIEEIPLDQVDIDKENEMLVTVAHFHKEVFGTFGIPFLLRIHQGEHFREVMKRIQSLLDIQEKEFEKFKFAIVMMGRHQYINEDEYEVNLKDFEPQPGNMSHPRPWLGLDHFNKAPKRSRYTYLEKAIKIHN

The experiment addresses USP7 (Homo sapiens, UniProt Q93009). Briefly: USP7 inhibitory potency (Table 1). Format: biochemical.
`OC1(c2cc3nccc(-c4cc(Cl)cc5c4O[C@@H](c4onc6c4CNCC6)C5)c3s2)CNC1` [(R)-3-(7-(5-chloro-2-(4,5,6,7-tetrahydroisoxazolo[4,3-c]pyridin-3-yl)-2,3-dihydrobenzofuran-7-yl)thieno[3,2-b]pyridin-2-yl)azetidin-3-ol] yielded a half-maximal inhibitory concentration (IC50) of 1 to 10 µM.

With `OC1(c2cc3nccc(-c4cc(Cl)cc5c4O[C@@H](c4onc6c4CNCC6)C5)c3s2)COC1` [(R)-3-(7-(5-chloro-2-(4,5,6,7-tetrahydroisoxazolo[4,3-c]pyridin-3-yl)-2,3-dihydrobenzofuran-7-yl)thieno[3,2-b]pyridin-2-yl)oxetan-3-ol], the concentration for half-maximal inhibition (IC50) was under 1 µM.

`CN(C)C(=O)CCc1cc2nccc(-c3cc(Cl)cc4c3O[C@@H](C(=O)N3CCNCC3)C4)c2s1` [(R)-3-(7-(5-chloro-2-(piperazine-1-carbonyl)-2,3-dihydrobenzofuran-7-yl)thieno[3,2-b]pyridin-2-yl)-N,N-dimethylpropanamide] registered a 50% inhibitory concentration (IC50) of 1 to 10 µM.

`CNC(=O)CCc1cc2nccc(-c3cc(Cl)cc4c3O[C@@H](C(=O)N3CCNCC3)C4)c2s1` [(R)-3-(7-(5-chloro-2-(piperazine-1-carbonyl)-2,3-dihydrobenzofuran-7-yl)thieno[3,2-b]pyridin-2-yl)-N-methylpropanamide]: the IC50 is under 1 µM.

`O[C@]1(c2cc3nccc(-c4cc(Cl)cc5c4O[C@@H](c4onc6c4CNCC6)C5)c3s2)CCOC1` [(R)-3-(7-((R)-5-chloro-2-(4,5,6,7-tetrahydroisoxazolo[4,3-c]pyridin-3-yl)-2,3-dihydrobenzofuran-7-yl)thieno[3,2-b]pyridin-2-yl)tetrahydrofuran-3-ol]: the IC50 was under 1 µM.

`CN1CCC(=O)N(Cc2cc3nccc(-c4cc(Cl)cc5c4O[C@@H](C(=O)N4CCNCC4)C5)c3s2)C1=O` [(R)-3-((7-(5-chloro-2-(piperazine-1-carbonyl)-2,3-dihydrobenzofuran-7-yl)thieno[3,2-b]pyridin-2-yl)methyl)-1-methyldihydropyrimidine-2,4(1H,3H)-dione] yielded a half-maximal inhibitory concentration (IC50) of under 1 µM.

Consider `CN1CC(=O)N(Cc2cc3nccc(-c4cc(Cl)cc5c4O[C@@H](C(=O)N4CCNCC4)C5)c3s2)C1=O` [(R)-3-((7-(5-chloro-2-(piperazine-1-carbonyl)-2,3-dihydrobenzofuran-7-yl)thieno[3,2-b]pyridin-2-yl)methyl)-1-methylimidazolidine-2,4-dione], for which the 50% inhibitory concentration (IC50) was under 1 µM.

Regarding `Cn1ccc(=O)n(Cc2cc3nccc(-c4cc(Cl)cc5c4O[C@@H](C(=O)N4CCNCC4)C5)c3s2)c1=O` [(R)-3-((7-(5-chloro-2-(piperazine-1-carbonyl)-2,3-dihydrobenzofuran-7-yl)thieno[3,2-b]pyridin-2-yl)methyl)-1-methylpyrimidine-2,4(1H,3H)-dione], the IC50 was under 1 µM.

Take `O=C([C@H]1Cc2cc(Cl)cc(-c3ccnc4cc(CN5C(=O)CCNC5=O)sc34)c2O1)N1CCNCC1` [(R)-3-((7-(5-chloro-2-(piperazine-1-carbonyl)-2,3-dihydrobenzofuran-7-yl)thieno[3,2-b]pyridin-2-yl)methyl)dihydropyrimidine-2,4(1H,3H)-dione]: the half-inhibitory concentration (IC50) was under 1 µM.

In turn, `O=C([C@H]1Cc2cc(Cl)cc(-c3ccnc4cc(CN5C(=O)CNC5=O)sc34)c2O1)N1CCNCC1` [(R)-3-((7-(5-chloro-2-(piperazine-1-carbonyl)-2,3-dihydrobenzofuran-7-yl)thieno[3,2-b]pyridin-2-yl)methyl)imidazolidine-2,4-dione] had a half-inhibitory concentration (IC50) of under 1 µM.

`O=C1OCCN1Cc1cc2nccc(-c3cc(Cl)cc4c3O[C@@H](C(=O)N3CCNCC3)C4)c2s1` [(R)-3-((7-(5-chloro-2-(piperazine-1-carbonyl)-2,3-dihydrobenzofuran-7-yl)thieno[3,2-b]pyridin-2-yl)methyl)oxazolidin-2-one] registered an IC50 of under 1 µM.

In turn, `O=C([C@H]1Cc2cc(Cl)cc(-c3ccnc4cc(CN5C(=O)COC5=O)sc34)c2O1)N1CCNCC1` [(R)-3-((7-(5-chloro-2-(piperazine-1-carbonyl)-2,3-dihydrobenzofuran-7-yl)thieno[3,2-b]pyridin-2-yl)methyl)oxazolidine-2,4-dione] yielded an IC50 of under 1 µM.

The molecule `O=C([C@H]1Cc2cc(Cl)cc(-c3ccnc4cc(Cn5cnccc5=O)sc34)c2O1)N1CCNCC1` [(R)-3-((7-(5-chloro-2-(piperazine-1-carbonyl)-2,3-dihydrobenzofuran-7-yl)thieno[3,2-b]pyridin-2-yl)methyl)pyrimidin-4(3H)-one] showed a half-inhibitory concentration (IC50) of under 1 µM.

The molecule `O=C([C@H]1Cc2cc(Cl)cc(-c3ccnc4cc(Cn5c(=O)cc[nH]c5=O)sc34)c2O1)N1CCNCC1` [(R)-3-((7-(5-chloro-2-(piperazine-1-carbonyl)-2,3-dihydrobenzofuran-7-yl)thieno[3,2-b]pyridin-2-yl)methyl)pyrimidine-2,4(1H,3H)-dione] displayed an IC50 of under 1 µM.

In turn, `O=C([C@H]1Cc2cc(Cl)cc(-c3ccnc4cc(CN5C(=O)CSC5=O)sc34)c2O1)N1CCNCC1` [(R)-3-((7-(5-chloro-2-(piperazine-1-carbonyl)-2,3-dihydrobenzofuran-7-yl)thieno[3,2-b]pyridin-2-yl)methyl)thiazolidine-2,4-dione] came in with a concentration for half-maximal inhibition (IC50) of under 1 µM.

`Cn1nc2c(c1[C@H]1Cc3cc(Cl)cc(-c4ncnc5ccoc45)c3O1)CNCC2` [(R)-4-(5-chloro-2-(2-methyl-4,5,6,7-tetrahydro-2H-pyrazolo[4,3-c]pyridin-3-yl)-2,3-dihydrobenzofuran-7-yl)furo[3,2-d]pyrimidine] displayed a 50% inhibitory concentration (IC50) of under 1 µM.

As to `Cn1nc2c(c1[C@H]1Cc3cc(Cl)cc(-c4ncnc5ccsc45)c3O1)CNCC2` [(R)-4-(5-chloro-2-(2-methyl-4,5,6,7-tetrahydro-2H-pyrazolo[4,3-c]pyridin-3-yl)-2,3-dihydrobenzofuran-7-yl)thieno[3,2-d]pyrimidine], the IC50 is under 1 µM.

`N#Cc1ccc2c(-c3cc(Cl)cc4c3O[C@@H](c3n[nH]c5c3CNCC5)C4)ccnc2c1` [(R)-4-(5-chloro-2-(4,5,6,7-tetrahydro-1H-pyrazolo[4,3-c]pyridin-3-yl)-2,3-dihydrobenzofuran-7-yl)quinoline-7-carbonitrile]: the half-inhibitory concentration (IC50) was under 1 µM.

In turn, `Cc1cc(-c2cc(Cl)cc3c2O[C@@H](c2onc4c2CNCC4)C3)c2ccc(C#N)cc2n1` [(R)-4-(5-chloro-2-(4,5,6,7-tetrahydroisoxazolo[4,3-c]pyridin-3-yl)-2,3-dihydrobenzofuran-7-yl)-2-methylquinoline-7-carbonitrile] had a 50% inhibitory concentration (IC50) of 10 to 30 µM.

For the molecule `Clc1cc2c(c(-c3ccnc4c3CC3(COCOC3)C4)c1)O[C@@H](c1onc3c1CNCC3)C2` [(R)-4-(5-chloro-2-(4,5,6,7-tetrahydroisoxazolo[4,3-c]pyridin-3-yl)-2,3-dihydrobenzofuran-7-yl)-5,7-dihydrospiro[cyclopenta[b]pyridine-6,5′-[1,3]dioxane]], the IC50 was under 1 µM.

`N#Cc1cc2nccc(-c3cc(Cl)cc4c3O[C@@H](c3onc5c3CNCC5)C4)c2cc1F` [(R)-4-(5-chloro-2-(4,5,6,7-tetrahydroisoxazolo[4,3-c]pyridin-3-yl)-2,3-dihydrobenzofuran-7-yl)-6-fluoroquinoline-7-carbonitrile] returned a half-inhibitory concentration (IC50) of under 1 µM.

Molecule `Cc1cc2c(-c3cc(Cl)cc4c3O[C@@H](c3onc5c3CNCC5)C4)ccnc2cc1C#N` [(R)-4-(5-chloro-2-(4,5,6,7-tetrahydroisoxazolo[4,3-c]pyridin-3-yl)-2,3-dihydrobenzofuran-7-yl)-6-methylquinoline-7-carbonitrile] came in with an IC50 of 1 to 10 µM.

What is called IC50 is the concentration needed to halve the response being measured. A lower IC50 goes with greater potency in that assay.
